Where two headings read alike, the source gives them in different places.
Key:
[1] = tested on: IL-2 secretion from T cells in human whole blood; type: cell-based; conditions: read-out: WB (IL-2) IC50 (nM, Avg)
[2] = tested on: IFN-g secretion from T cells in human whole blood; type: cell-based
[3] = read-out: WB (IFNg) IC50 (nM, Avg)
[4] = read-out: WB (IFNg) IC5- (nM, Avg)

Molecule	IC50 [2, 3] [nM]	IC50 [2, 4] [nM]	other results
CC[C@H](C)[C@@H]1NC(=O)[C@@H](NC(=O)[C@H](CO)NC(=O)[C@@H](N)CCCNC(=N)N)CSSC[C@@H](C(=O)O)NC(=O)[C@H]([C@@H](C)O)NC(=O)CNC(=O)[C@@H]2CSSC[C@@H]3NC(=O)[C@H](CCC(N)=O)NC(=O)[C@H](Cc4ccccc4)NC(=O)[C@H](C)NC(=O)[C@H]([C@@H](C)O)NC(=O)[C@H](CSSC[C@H](NC(=O)[C@H](Cc4ccccc4)NC(=O)[C@H](CO)NC(=O)[C@H](CC(C)C)NC(=O)[C@H](CCCNC(=N)N)NC(=O)[C@H](Cc4ccc(O)cc4)NC(=O)[C@H](CCCCN)NC(=O)[C@H](CCSC)NC(=O)[C@H](CO)NC(=O)[C@H](Cc4c[nH]cn4)NC(=O)[C@H](CCCCN)NC3=O)C(=O)N[C@@H](CCCNC(=N)N)C(=O)N[C@@H](CCCCN)C(=O)N[C@@H]([C@@H](C)O)C(=O)N2)NC(=O)[C@H](CCCNC(=N)N)NC(=O)[C@H](CO)NC(=O)[C@H](Cc2cccc3ccccc23)NC(=O)[C@@H]2CCCN2C(=O)[C@H]([C@@H](C)CC)NC(=O)[C@H]([C@@H](C)O)NC(=O)[C@H](CC(=O)O)NC1=O [[1-Nal9]ShK]	–	–	IC50 [1]: 0.367 nM
CC[C@H](C)[C@@H]1NC(=O)[C@@H](NC(=O)[C@H](CO)NC(=O)[C@@H](N)CCCNC(=N)N)CSSC[C@@H](C(=O)O)NC(=O)[C@H]([C@@H](C)O)NC(=O)[C@H](Cc2cccc3ccccc23)NC(=O)[C@@H]2CSSC[C@@H]3NC(=O)[C@H](CCC(N)=O)NC(=O)[C@H](Cc4ccccc4)NC(=O)[C@H](C)NC(=O)[C@H]([C@@H](C)O)NC(=O)[C@H](CSSC[C@H](NC(=O)[C@H](Cc4ccccc4)NC(=O)[C@H](CO)NC(=O)[C@H](CC(C)C)NC(=O)[C@H](CCCNC(=N)N)NC(=O)[C@H](Cc4ccc(O)cc4)NC(=O)[C@H](CCCCN)NC(=O)[C@H](CCSC)NC(=O)[C@H](CO)NC(=O)[C@H](Cc4c[nH]cn4)NC(=O)[C@H](CCCCN)NC3=O)C(=O)N[C@@H](CCCNC(=N)N)C(=O)N[C@@H](CCCCN)C(=O)N[C@@H]([C@@H](C)O)C(=O)N2)NC(=O)[C@H](CCCNC(=N)N)NC(=O)[C@H](CO)NC(=O)[C@H](CCCCN)NC(=O)[C@@H]2CCCN2C(=O)[C@H]([C@@H](C)CC)NC(=O)[C@H]([C@@H](C)O)NC(=O)[C@H](CC(=O)O)NC1=O [[1-Nal33]ShK]	1.43	–	–
CC[C@H](C)[C@@H]1NC(=O)[C@@H](NC(=O)[C@H](CO)NC(=O)[C@@H](N)CCCNC(=N)N)CSSC[C@@H](C(=O)O)NC(=O)[C@H]([C@@H](C)O)NC(=O)CNC(=O)[C@@H]2CSSC[C@@H]3NC(=O)[C@H](CCC(N)=O)NC(=O)[C@H](Cc4ccccc4)NC(=O)[C@H](C)NC(=O)[C@H]([C@@H](C)O)NC(=O)[C@H](CSSC[C@H](NC(=O)[C@H](Cc4ccccc4)NC(=O)[C@H](CO)NC(=O)[C@H](CC(C)C)NC(=O)[C@H](CCCNC(=N)N)NC(=O)[C@H](Cc4ccc(O)cc4)NC(=O)[C@H](CCCCN)NC(=O)[C@H](CCSC)NC(=O)[C@H](CO)NC(=O)[C@H](CCC(=O)O)NC(=O)[C@H](CCCCN)NC3=O)C(=O)N[C@@H](CCCNC(=N)N)C(=O)N[C@@H](CCCCN)C(=O)N[C@@H]([C@@H](C)O)C(=O)N2)NC(=O)[C@H](CCCNC(=N)N)NC(=O)[C@H](CO)NC(=O)[C@H](CCCCN)NC(=O)[C@@H]2CCCN2C(=O)[C@H]([C@@H](C)CC)NC(=O)[C@H]([C@@H](C)O)NC(=O)[C@H](CC(=O)O)NC1=O [[Glu19]ShK]	–	0.215	–
CC[C@H](C)[C@@H]1NC(=O)[C@@H](NC(=O)[C@H](CO)NC(=O)[C@@H](N)CCCNC(=N)N)CSSC[C@@H](C(=O)O)NC(=O)[C@H]([C@@H](C)O)NC(=O)CNC(=O)[C@@H]2CSSC[C@@H]3NC(=O)[C@H](CCC(N)=O)NC(=O)[C@H](Cc4ccccc4)NC(=O)[C@H](C)NC(=O)[C@H]([C@@H](C)O)NC(=O)[C@H](CSSC[C@H](NC(=O)[C@H](Cc4ccccc4)NC(=O)[C@H](CO)NC(=O)[C@H](CC(C)C)NC(=O)[C@H](CCCNC(=N)N)NC(=O)[C@H](Cc4ccc(O)cc4)NC(=O)[C@H](CCC(=O)O)NC(=O)[C@H](CCSC)NC(=O)[C@H](CO)NC(=O)[C@H](Cc4c[nH]cn4)NC(=O)[C@H](CCCCN)NC3=O)C(=O)N[C@@H](CCCNC(=N)N)C(=O)N[C@@H](CCCCN)C(=O)N[C@@H]([C@@H](C)O)C(=O)N2)NC(=O)[C@H](CCCNC(=N)N)NC(=O)[C@H](CO)NC(=O)[C@H](CCCCN)NC(=O)[C@@H]2CCCN2C(=O)[C@H]([C@@H](C)CC)NC(=O)[C@H]([C@@H](C)O)NC(=O)[C@H](CC(=O)O)NC1=O [[Glu22]ShK]	–	100	–
CC[C@H](C)[C@@H]1NC(=O)[C@@H](NC(=O)[C@H](CO)NC(=O)[C@@H](N)CCCNC(=N)N)CSSC[C@@H](C(=O)O)NC(=O)[C@H]([C@@H](C)O)NC(=O)CNC(=O)[C@@H]2CSSC[C@@H]3NC(=O)[C@H](CCC(N)=O)NC(=O)[C@H](Cc4ccccc4)NC(=O)[C@H](C)NC(=O)[C@H]([C@@H](C)O)NC(=O)[C@H](CSSC[C@H](NC(=O)[C@H](Cc4ccccc4)NC(=O)[C@H](CO)NC(=O)[C@H](CC(C)C)NC(=O)[C@H](CCCNC(=N)N)NC(=O)[C@H](CCC(=O)O)NC(=O)[C@H](CCCCN)NC(=O)[C@H](CCSC)NC(=O)[C@H](CO)NC(=O)[C@H](Cc4c[nH]cn4)NC(=O)[C@H](CCCCN)NC3=O)C(=O)N[C@@H](CCCNC(=N)N)C(=O)N[C@@H](CCCCN)C(=O)N[C@@H]([C@@H](C)O)C(=O)N2)NC(=O)[C@H](CCCNC(=N)N)NC(=O)[C@H](CO)NC(=O)[C@H](CCCCN)NC(=O)[C@@H]2CCCN2C(=O)[C@H]([C@@H](C)CC)NC(=O)[C@H]([C@@H](C)O)NC(=O)[C@H](CC(=O)O)NC1=O [[Glu23]ShK]	–	100	–
CC[C@H](C)[C@@H]1NC(=O)[C@@H](NC(=O)[C@H](CO)NC(=O)[C@@H](N)CCCNC(=N)N)CSSC[C@@H](C(=O)O)NC(=O)[C@H]([C@@H](C)O)NC(=O)CNC(=O)[C@@H]2CSSC[C@@H]3NC(=O)[C@H](CCC(N)=O)NC(=O)[C@H](Cc4ccccc4)NC(=O)[C@H](C)NC(=O)[C@H]([C@@H](C)O)NC(=O)[C@H](CSSC[C@H](NC(=O)[C@H](Cc4ccccc4)NC(=O)[C@H](CO)NC(=O)[C@H](CC(C)C)NC(=O)[C@H](CCC(=O)O)NC(=O)[C@H](Cc4ccc(O)cc4)NC(=O)[C@H](CCCCN)NC(=O)[C@H](CCSC)NC(=O)[C@H](CO)NC(=O)[C@H](Cc4c[nH]cn4)NC(=O)[C@H](CCCCN)NC3=O)C(=O)N[C@@H](CCCNC(=N)N)C(=O)N[C@@H](CCCCN)C(=O)N[C@@H]([C@@H](C)O)C(=O)N2)NC(=O)[C@H](CCCNC(=N)N)NC(=O)[C@H](CO)NC(=O)[C@H](CCCCN)NC(=O)[C@@H]2CCCN2C(=O)[C@H]([C@@H](C)CC)NC(=O)[C@H]([C@@H](C)O)NC(=O)[C@H](CC(=O)O)NC1=O [[Glu24]ShK]	–	4.07	–
CC[C@H](C)[C@@H]1NC(=O)[C@@H](NC(=O)[C@H](CO)NC(=O)[C@@H](N)CCCNC(=N)N)CSSC[C@@H](C(=O)O)NC(=O)[C@H]([C@@H](C)O)NC(=O)[C@H](CCC(=O)O)NC(=O)[C@@H]2CSSC[C@@H]3NC(=O)[C@H](CCC(N)=O)NC(=O)[C@H](Cc4ccccc4)NC(=O)[C@H](C)NC(=O)[C@H]([C@@H](C)O)NC(=O)[C@H](CSSC[C@H](NC(=O)[C@H](Cc4ccccc4)NC(=O)[C@H](CO)NC(=O)[C@H](CC(C)C)NC(=O)[C@H](CCCNC(=N)N)NC(=O)[C@H](Cc4ccc(O)cc4)NC(=O)[C@H](CCCCN)NC(=O)[C@H](CCSC)NC(=O)[C@H](CO)NC(=O)[C@H](Cc4c[nH]cn4)NC(=O)[C@H](CCCCN)NC3=O)C(=O)N[C@@H](CCCNC(=N)N)C(=O)N[C@@H](CCCCN)C(=O)N[C@@H]([C@@H](C)O)C(=O)N2)NC(=O)[C@H](CCCNC(=N)N)NC(=O)[C@H](CO)NC(=O)[C@H](CCCCN)NC(=O)[C@@H]2CCCN2C(=O)[C@H]([C@@H](C)CC)NC(=O)[C@H]([C@@H](C)O)NC(=O)[C@H](CC(=O)O)NC1=O [[Glu33]ShK]	–	–	IC50 [1]: 0.054 nM
CC[C@H](C)[C@@H]1NC(=O)[C@@H](NC(=O)[C@H](CO)NC(=O)[C@@H](N)CCCNC(=N)N)CSSC[C@@H](C(=O)O)NC(=O)[C@H]([C@@H](C)O)NC(=O)CNC(=O)[C@@H]2CSSC[C@@H]3NC(=O)[C@H](CCC(N)=O)NC(=O)[C@H](Cc4ccccc4)NC(=O)[C@H](C)NC(=O)[C@H]([C@@H](C)O)NC(=O)[C@H](CSSC[C@H](NC(=O)[C@H](Cc4ccccc4)NC(=O)[C@H](CO)NC(=O)[C@H](CC(C)C)NC(=O)[C@H](CCCNC(=N)N)NC(=O)[C@H](Cc4ccc(O)cc4)NC(=O)[C@H](CCCCN)NC(=O)[C@H](CCSC)NC(=O)[C@H](CO)NC(=O)[C@H](Cc4c[nH]cn4)NC(=O)[C@H](CCCCN)NC3=O)C(=O)N[C@@H](CCCNC(=N)N)C(=O)N[C@@H](CCCCN)C(=O)N[C@@H]([C@@H](C)O)C(=O)N2)NC(=O)[C@H](CCCNC(=N)N)NC(=O)[C@H](CO)NC(=O)[C@H](CCCCN)NC(=O)[C@H](CCCCN)NC(=O)[C@H]([C@@H](C)CC)NC(=O)[C@H]([C@@H](C)O)NC(=O)[C@H](CC(=O)O)NC1=O [[Lys8]ShK]	0.974	–	–
CC[C@H](C)[C@@H]1NC(=O)[C@@H](NC(=O)[C@H](CO)NC(=O)[C@@H](N)CCCNC(=N)N)CSSC[C@@H](C(=O)O)NC(=O)[C@H]([C@@H](C)O)NC(=O)[C@H](CCCCN)NC(=O)[C@@H]2CSSC[C@@H]3NC(=O)[C@H](CCC(N)=O)NC(=O)[C@H](Cc4ccccc4)NC(=O)[C@H](C)NC(=O)[C@H]([C@@H](C)O)NC(=O)[C@H](CSSC[C@H](NC(=O)[C@H](Cc4ccccc4)NC(=O)[C@H](CO)NC(=O)[C@H](CC(C)C)NC(=O)[C@H](CCCNC(=N)N)NC(=O)[C@H](Cc4ccc(O)cc4)NC(=O)[C@H](CCCCN)NC(=O)[C@H](CCSC)NC(=O)[C@H](CO)NC(=O)[C@H](Cc4c[nH]cn4)NC(=O)[C@H](CCCCN)NC3=O)C(=O)N[C@@H](CCCNC(=N)N)C(=O)N[C@@H](CCCCN)C(=O)N[C@@H]([C@@H](C)O)C(=O)N2)NC(=O)[C@H](CCCNC(=N)N)NC(=O)[C@H](CO)NC(=O)[C@H](CCCCN)NC(=O)[C@@H]2CCCN2C(=O)[C@H]([C@@H](C)CC)NC(=O)[C@H]([C@@H](C)O)NC(=O)[C@H](CC(=O)O)NC1=O [[Lys33]ShK]	0.317	–	–
[1-Nal14]ShK (RSCIDTIPKSRCTXFQCKHSMKYRLSFCRKTCGTC; non-natural residues)	0.11	–	–

— patent US20120121591A1 (priority 2009, published 2012)
